{"source": "patent US8026410B2", "about": "(priority 2003, dated 2011)", "key": {"[1]": {"system": "Tobacco seeds germinated on MS medium containing DAS", "set-up": "species or system Nicotiana tabacum", "details": "in vivo"}, "[2]": {"system": "Tobacco seeds germinated on MS medium containing DON", "set-up": "species or system Nicotiana tabacum", "details": "in vivo"}, "[3]": {"system": "wheat", "details": "in vivo; cited from earlier work"}, "[4]": {"system": "transgenic tobacco plants", "details": "in vivo; cited from earlier work"}, "[5]": {"system": "Phytophthora infestans, Colletotrichum coccodes, fusarium solani, fusarium sulphureum, Phoma foreata and Rhizoctonia solani", "details": "cited from earlier work"}}}
{"molecule": "4,15-diacetoxyscirpenol [DAS]", "values": [{"measurement": "lowest concentration that would give the best inhibition of wild type tobacco seed growth", "setting": "[1]", "result": 1, "unit": "µM"}]}
{"molecule": "CC1=C[C@H]2O[C@@H]3[C@H](O)C[C@](C)([C@@]2(CO)[C@H](O)C1=O)[C@]31CO1", "note": "[DON, Deoxynivalenol]", "values": [{"measurement": "lowest concentration that would give the best inhibition of wild type tobacco seed growth", "setting": "[2]", "result": 10, "unit": "µM"}, {"measurement": "inhibition toward wheat", "setting": "[3]", "result": "far more inhibitory than DAS"}]}
{"molecule": "PAP: 29-kDa ribosome inactivating protein (protein) VNTIIYNVGSTTISKYATFLNDLRNEAKDPSLKCYGIPMLPNTNTNPKYVLVELQGSNKKTITLMLRRNNLYVMGYSDPFETNKCRYHIFNDISGTERQDVETTLCPNANSRVSKNINFDSRYPTLESKAGVKSRSQVQLGIQILDSNIGKISGVMSFTEKTEAEFLLVAIQMVSEAARFKYIENQVKTNFNRAFNPNPKVLNLQETWGKISTAIHDAKNGVLPKPLELVDASGAKWIVLRVDEIKPDVALLNYVGGSCQTTY", "values": [{"measurement": "phenotype of PAP-expressing tobacco plants", "setting": "[4]", "result": "stunted, mottled phenotype"}, {"measurement": "effect on growth of fungi in vitro", "setting": "[5]", "result": "no effect on the growth"}]}
